Measured values from article PMC11456916, “A screen for cell envelope stress uncovers an inhibitor of prolipoprotein diacylglyceryl transferase, Lgt, in Escherichiacoli” (iScience, 2024).
In brackets after ≈: the same amount, converted by molar mass. Read-outs that look alike come from different tables or passages of the source.

Assays:
[1] = tested on: E. coli ΔtolC-pore harboring CRISPRi plasmids targeting lgt; assay: CRISPRi lgt knockdown MIC (low-copy enhancement); assay type: cell-based; details: two gRNAs targeting lgt, 100 ng/mL aTc
Source text: We next turned to genetic approaches to confirm the mechanism of action of MAC-0452936. […] To that end, we screened the E. coli CRISPRi collection in the ΔtolC-pore genetic background with a sub-inhibitory concentration of MAC-0452936 and measured the fitness of all 356 CRISPRi mutants (Figure 4C and Data S4). […] Depletion of Lgt by CRISPRi provided supporting evidence that MAC-0452936 targeted Lgt in E. coli; however, we sought to confirm this observation using a parallel genetic approach. We hypothesized that MAC-0452936 potency would also be affected by high-copy expression of lgt. To that end, we introduced either an arabinose inducible copy of lgt supplied on the pCHAP9231 plasmid[48] or the pBAD19s plasmid as a control into E. coli ΔtolC-pore and tested the potency of MAC-0452936 (Figure 4E). Induction of lgt expression with arabinose suppressed the activity of MAC-0452936 by about 8-fold. […] To test this hypothesis, we constructed E. coli ΔlgtΔtolC-pore with pCHAP9231[48] so that lgt expression was driven solely by arabinose from the plasmid. […] To test this observation with MAC-0452936, we introduced an lpp deletion into our screening strain E. coli ΔtolC-pore and assessed the activity of our Lgt inhibitor in this mutant background. […]

[2] = target: T1, prolipoprotein diacylglyceryl transferase, Lgt (Escherichia coli, UniProt P60955); assay: In vitro Lgt biochemical assay (phosphatidylglycerol and Pal-IAAC peptide substrates); set-up: species or system E. coli
T1 construct: Expression, purification, and in vitro Lgt biochemical assay were conducted as described by Diao et al; made in house
T1 sequence (P60955 whole entry): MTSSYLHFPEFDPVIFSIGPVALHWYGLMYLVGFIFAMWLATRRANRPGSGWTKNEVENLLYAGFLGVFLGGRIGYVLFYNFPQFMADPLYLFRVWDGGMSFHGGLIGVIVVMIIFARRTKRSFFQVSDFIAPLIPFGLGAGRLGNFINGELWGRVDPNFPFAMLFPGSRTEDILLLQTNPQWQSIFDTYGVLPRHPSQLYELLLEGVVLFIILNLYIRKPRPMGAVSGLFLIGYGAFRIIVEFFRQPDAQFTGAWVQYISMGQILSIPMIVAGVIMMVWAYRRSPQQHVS
Source text: With both genetic and phenotypic evidence supporting MAC-0452936 inhibiting Lgt in E. coli, we next investigated whether MAC-0452936 could inhibit Lgt activity in vitro. Recently, a biochemical assay for Lgt activity was developed using phosphatidylglycerol and Pal-IAAC peptide as substrates.[12] […] As similar results were obtained using two different Lgt enzyme preparations, the inhibition observed by MAC-0452936 was not dependent on the preparation of the lipid matrix. Together, we present genetic, phenotypic, and biochemical evidence that MAC-0452936 inhibits the growth of E. coli through inhibition of Lgt. MAC-0452936 represents a previously undiscovered small molecule inhibitor of bacterial Lgt, and the oxime ester represents a promising chemical scaffold for antibiotic discovery.
Expression, purification, and in vitro Lgt biochemical assay were conducted as described by Diao et al.[12]

E. coli ΔtolC-pore = assay: MIC assay, E. coli ΔtolC-pore; assay type: cell-based; details: LB, 18 h
Description: (§1) For MIC assays, cultures of bacteria were grown in LB broth. Overnight cultures were diluted (1:100) into fresh LB media and grown to the mid-log phase of growth (OD600 ∼0.5). Subcultures were then normalized to an OD600 of 0.1, and diluted (1:5000) into assay media. Assay plates were then incubated for 18 h at 37°C, then OD600 was measured using a Biotek Neo plate reader.

E. coli BW25113 = assay: MIC assay, wild-type E. coli with or without SPR741; assay type: cell-based; details: for reduction in potency relative to MAC-0452936 (1): MIC against E. coli with SPR741
Description: We next sought to determine whether we could achieve growth inhibition of wild-type E. coli using MAC-0452936 and an antibiotic adjuvant. […] To that end, we determined the MIC of MAC-0452936 against wild-type E. coli in the presence and absence of a sub-MIC concentration of SPR741 (Figure S8B). […] We leveraged this combination to characterize the spectrum of activity of MAC-0452936 against a panel of Gram-negative pathogens (Table 2). In the presence of 8 μg/mL SPR741, we observed MAC-0452936 activity against the clinical E. coli isolates C0244 and CFT073 at 2 μg/mL as well as against Salmonella Typhimurium SL1344 at 4 μg/mL.
as §1

[3] = Lgt purified using DDM lipid matrix, read-out: in vitro Lgt inhibition DDM-Lgt IC50
[4] = Lgt purified using amphipol lipid matrix, read-out: in vitro Lgt inhibition Amph-Lgt IC50

Structure (SMILES) | sensitization upon depletion of Lgt with CRISPRi constructs [1] | IC50 [2, 3] [µM] | IC50 [2, 4] [µM] | MIC, E. coli ΔtolC-pore (E. coli ΔtolC-pore) [µg/mL] | MIC, E. coli BW25113 (WT) + 8 μg/mL SPR741 (E. coli BW25113) [µg/mL] | reduction in potency relative to MAC-0452936 (1) (E. coli BW25113) [fold] | activity against E. coli with SPR741 (E. coli BW25113; in words)
CO[C@H]1/C=C/O[C@@]2(C)Oc3c(C)c(O)c4c(O)c(c(/C=N/N5CCN(C)CC5)c(O)c4c3C2=O)NC(=O)/C(C)=C\C=C\[C@H](C)[C@H](O)[C@@H](C)[C@@H](O)[C@@H](C)[C@H](OC(C)=O)[C@@H]1C [Rifampicin] | not to either of the negative control antibiotics | – | – | – | – | – | –
COc1ccc(C(=O)O/N=C(\c2cccs2)C(C)(C)C)c(F)c1 [compound 2, (Z)-2-Pivaloylthiophene O-(2-fluoro-4-methoxybenzoyl) oxime] | – | 0.77 | 0.32 | 0.5 (≈ 1.49 µM) | – | – | –
CC(C)(C)/C(=N/OC(=O)c1cccnc1)c1cccs1 [compound 3, (Z)-2-Pivaloylthiophene O-(pyridine-3-oyl) oxime] | – | 3.54 | 2.72 | 1 (≈ 3.47 µM) | – | – | –
CC(C)(C)/C(=N/OC(=O)c1cncs1)c1cccs1 [compound 4, (Z)-2-Pivaloylthiophene O-(thiazol-5-ylcarbonyl) oxime] | – | 7.68 | 4.92 | 2 (≈ 6.79 µM) | 2 | – | –
Cn1cncc1C(=O)O/N=C(\c1cccs1)C(C)(C)C [compound 5, (Z)-2-Pivaloylthiophene O-(1-methyl-1H-imidazol-5-oyl) oxime] | – | 7.78 | 5.91 | 4 (≈ 13.7 µM) | 4 | – | –
COc1ccc(C(=O)O/N=C(\c2cccs2)C(C)(C)C)cc1N [compound 6, (Z)-2-Pivaloylthiophene O-(3-amino-4-methoxybenzoyl) oxime] | – | 57.3 | 95.5 | 32 (≈ 96.3 µM) | 8 | – | –
COc1cc(OC)cc(C(=O)O/N=C(\c2cccs2)C(C)(C)C)c1 [compound 7, (Z)-2-Pivaloylthiophene O-(3,5-dimethoxybenzoyl) oxime] | – | 58.7 | 175 | > 32 | 4 | – | –
COc1ccc(CC(=O)O/N=C(\c2cccs2)C(C)(C)C)cc1 [compound 16, (Z)-2-Pivaloylthiophene O-(2-(4-methoxyphenyl)acetyl) oxime] | – | – | – | – | 4 | 8 | –
CC(C)(C)C(=NOS(N)(=O)=O)c1cccs1 [compound 17, 2-Pivaloylthiophene O-(sulfamoyl) oxime] | – | – | – | – | – | – | inactive
COc1ccc(C(=O)O/N=C(\c2cncs2)C(C)(C)C)cc1 [compound 20, (Z)-5-Pivaloylthiazole O-(4-methoxybenzoyl) oxime] | – | – | – | – | – | ≥ 32 | –
COc1ccc(C(=O)O/N=C(\c2cccnc2)C(C)(C)C)cc1 [compound 22, (Z)-3-Pivaloylpyridine O-(4-methoxybenzoyl) oxime] | – | – | – | – | – | ≥ 32 | –
